Measurements as given in ChEMBL document CHEMBL1201862, “PubChem BioAssay data set” (2004).
The source made the active and inactive calls.

Legend:
[1] = system: HEK293; experiment: EBV LMP1 TES2 canonical NF-kB signalling blockers – cell-based, HEK293, luciferase, cherry-pick, dose response (AID 588343); type: functional; conditions: Homo sapiens
[2] = biological target: T1, Aminopeptidase N (Plasmodium falciparum FcB1/Columbia, UniProt O96935); experiment: malaria alanyl aminopeptidase activity blockers – biochemical, fluorogenic H-Leu-NHMec substrate, 1536-well (AID 1445); set-up: species or system Plasmodium falciparum 3D7, 3D7
T1 sequence (O96935 whole entry): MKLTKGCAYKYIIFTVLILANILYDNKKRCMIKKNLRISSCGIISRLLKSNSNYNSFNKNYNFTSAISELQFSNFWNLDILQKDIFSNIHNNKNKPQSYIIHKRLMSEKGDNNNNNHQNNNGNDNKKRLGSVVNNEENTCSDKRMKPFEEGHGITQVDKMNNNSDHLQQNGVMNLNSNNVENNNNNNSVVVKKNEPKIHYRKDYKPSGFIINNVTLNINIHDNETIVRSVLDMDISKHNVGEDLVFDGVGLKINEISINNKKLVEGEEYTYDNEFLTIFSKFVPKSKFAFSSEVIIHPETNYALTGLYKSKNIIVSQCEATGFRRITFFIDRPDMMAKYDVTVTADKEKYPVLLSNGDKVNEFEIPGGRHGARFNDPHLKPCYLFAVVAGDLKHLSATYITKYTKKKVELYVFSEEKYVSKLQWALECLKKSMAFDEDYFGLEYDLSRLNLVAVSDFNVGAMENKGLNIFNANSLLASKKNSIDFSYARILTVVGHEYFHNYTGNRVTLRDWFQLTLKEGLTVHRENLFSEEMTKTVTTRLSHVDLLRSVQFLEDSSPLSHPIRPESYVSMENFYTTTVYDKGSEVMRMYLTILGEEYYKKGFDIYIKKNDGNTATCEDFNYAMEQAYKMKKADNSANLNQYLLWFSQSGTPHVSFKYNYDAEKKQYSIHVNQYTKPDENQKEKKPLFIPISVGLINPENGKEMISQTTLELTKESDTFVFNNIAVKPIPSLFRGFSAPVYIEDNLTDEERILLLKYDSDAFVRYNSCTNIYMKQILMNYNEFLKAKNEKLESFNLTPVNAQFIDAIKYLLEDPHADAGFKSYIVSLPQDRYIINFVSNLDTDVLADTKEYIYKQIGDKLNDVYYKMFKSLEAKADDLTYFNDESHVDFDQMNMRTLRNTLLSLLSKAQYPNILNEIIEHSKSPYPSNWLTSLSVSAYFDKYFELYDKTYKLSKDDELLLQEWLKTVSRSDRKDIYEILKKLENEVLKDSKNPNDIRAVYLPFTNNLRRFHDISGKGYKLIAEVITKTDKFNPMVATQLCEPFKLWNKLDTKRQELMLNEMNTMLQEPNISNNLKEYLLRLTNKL

[3] = HEK-293T cell viability reduction – luminescence, B-cell screen hits, cytotoxicity control for BCR NF-kB inhibitor project, dose response (AID 489021); type: functional, cell-based;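 note: HEK-293T cells carrying an NF-kB luciferase reporter; cells exposed to compound for about 14 hours before viability readout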
[4] = biological target: T2, Short transient receptor potential channel 4 (Mus musculus, UniProt Q9QUQ5); experiment: block of DAMGO-driven TRPC4 calcium entry – cell-based, HEK293 TRPC4/mu-opioid, Fluo-4 calcium, dose response (AID 434942); type: functional;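 note: potency of inhibitors blocking the TRPC4 calcium response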
T2 sequence (Q9QUQ5 whole entry): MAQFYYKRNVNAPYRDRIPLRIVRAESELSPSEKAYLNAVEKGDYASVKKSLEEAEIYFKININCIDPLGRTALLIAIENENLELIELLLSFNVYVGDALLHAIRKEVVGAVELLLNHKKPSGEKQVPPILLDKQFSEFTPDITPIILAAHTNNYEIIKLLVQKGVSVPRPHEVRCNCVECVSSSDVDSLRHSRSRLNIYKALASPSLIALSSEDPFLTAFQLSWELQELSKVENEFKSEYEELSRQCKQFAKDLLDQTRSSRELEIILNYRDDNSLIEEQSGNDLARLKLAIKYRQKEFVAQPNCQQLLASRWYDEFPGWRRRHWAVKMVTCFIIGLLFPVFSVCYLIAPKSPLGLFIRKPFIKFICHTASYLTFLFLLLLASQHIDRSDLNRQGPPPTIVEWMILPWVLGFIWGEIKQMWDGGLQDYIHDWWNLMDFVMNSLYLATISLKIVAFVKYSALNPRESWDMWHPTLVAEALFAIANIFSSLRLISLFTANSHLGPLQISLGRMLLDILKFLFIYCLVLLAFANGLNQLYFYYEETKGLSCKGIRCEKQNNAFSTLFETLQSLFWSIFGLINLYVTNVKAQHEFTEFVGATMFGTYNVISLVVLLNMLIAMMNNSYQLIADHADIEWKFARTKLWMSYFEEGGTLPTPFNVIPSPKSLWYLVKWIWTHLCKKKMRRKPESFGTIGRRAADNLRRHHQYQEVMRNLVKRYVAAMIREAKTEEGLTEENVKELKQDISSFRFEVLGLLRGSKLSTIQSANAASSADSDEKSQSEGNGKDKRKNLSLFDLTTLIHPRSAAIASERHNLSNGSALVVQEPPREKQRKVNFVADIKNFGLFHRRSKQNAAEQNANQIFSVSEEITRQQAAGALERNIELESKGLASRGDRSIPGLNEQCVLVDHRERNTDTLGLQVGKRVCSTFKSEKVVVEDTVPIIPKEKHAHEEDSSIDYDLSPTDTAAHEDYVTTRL

[5] = biological target: T3, Leucine aminopeptidase (Plasmodium falciparum 3D7, UniProt Q8IL11); experiment: P. falciparum M17LAP inhibitors, primary screen, biochemical, fluorogenic H-Leu-NHMec substrate, 1536-well (AID 1619); type: functional
T3 sequence (Q8IL11 whole entry): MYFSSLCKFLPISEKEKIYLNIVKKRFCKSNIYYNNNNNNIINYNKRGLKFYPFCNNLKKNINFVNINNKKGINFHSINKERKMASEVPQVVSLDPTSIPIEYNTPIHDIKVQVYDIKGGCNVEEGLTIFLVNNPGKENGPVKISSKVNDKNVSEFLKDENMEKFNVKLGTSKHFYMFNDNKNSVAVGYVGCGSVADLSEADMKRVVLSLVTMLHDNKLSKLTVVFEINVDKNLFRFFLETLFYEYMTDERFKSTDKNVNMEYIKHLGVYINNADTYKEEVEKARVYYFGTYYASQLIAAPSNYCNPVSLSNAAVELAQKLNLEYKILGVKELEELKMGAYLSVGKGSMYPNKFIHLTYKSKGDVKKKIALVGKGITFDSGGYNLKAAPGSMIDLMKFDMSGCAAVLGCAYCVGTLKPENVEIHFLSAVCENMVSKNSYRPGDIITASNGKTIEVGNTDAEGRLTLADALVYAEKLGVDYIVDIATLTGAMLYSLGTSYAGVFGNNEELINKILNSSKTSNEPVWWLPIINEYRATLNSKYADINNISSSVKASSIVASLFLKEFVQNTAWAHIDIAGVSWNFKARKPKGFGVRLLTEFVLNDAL

[6] = biological target: Luciferin 4-monooxygenase (Photinus pyralis, UniProt P08659); experiment: inhibition of purified Photinus pyralis luciferase – biochemical, luminescence, dose response (AID 1891)
[7] = Luminescence Cell-Based Dose Confirmation HTS to Identify Inhibitors of Platelet Dense Granule Release. [Related pubchem assays: 1663 (Primary HTS), 1678 (Summary of Project)]; type: functional
[8] = luciferase reporter signal suppression in cells – H4 neuroglioma cells, luminescence, dose response (AID 1990); type: functional, cell-based
[9] = Luminescence Cell-Based Dose Response HTS to Identify Inhibitors of 5'UTR Stem-Loop Driven Prion Protein mRNA Translation in H4 Neuroglioblastoma Cells. [Related pubchem assays: 1827 (Project Summary), 1813 (Primary HTS)]; type: functional
[10] = alpha-synuclein stem-loop luciferase translation blockers – H4 neuroglioma cells, luminescence, confirmation (AID 1988); type: functional, cell-based
[11] = biological target: Glucose-6-phosphate 1-dehydrogenase (Homo sapiens, UniProt P11413); experiment: inhibition of Homo sapiens G6PD, dose series – biochemical, fluorescence, selectivity assay for P. falciparum G6PD inhibitor project, dose response (AID 504792); type: functional
[12] = biological target: T4, Microphthalmia-associated transcription factor (Homo sapiens, UniProt O75030); experiment: reducers of TRPM1 reporter luminescence, concentration series – cell-based, SK-MEL-5, cherry-picked, set 3, MITF inhibitor project, dose response (AID 493073); type: functional;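 note: SK-MEL-5 melanoma cells with luciferase driven by the MITF target TRPM1 promoter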
T4 sequence (O75030 whole entry): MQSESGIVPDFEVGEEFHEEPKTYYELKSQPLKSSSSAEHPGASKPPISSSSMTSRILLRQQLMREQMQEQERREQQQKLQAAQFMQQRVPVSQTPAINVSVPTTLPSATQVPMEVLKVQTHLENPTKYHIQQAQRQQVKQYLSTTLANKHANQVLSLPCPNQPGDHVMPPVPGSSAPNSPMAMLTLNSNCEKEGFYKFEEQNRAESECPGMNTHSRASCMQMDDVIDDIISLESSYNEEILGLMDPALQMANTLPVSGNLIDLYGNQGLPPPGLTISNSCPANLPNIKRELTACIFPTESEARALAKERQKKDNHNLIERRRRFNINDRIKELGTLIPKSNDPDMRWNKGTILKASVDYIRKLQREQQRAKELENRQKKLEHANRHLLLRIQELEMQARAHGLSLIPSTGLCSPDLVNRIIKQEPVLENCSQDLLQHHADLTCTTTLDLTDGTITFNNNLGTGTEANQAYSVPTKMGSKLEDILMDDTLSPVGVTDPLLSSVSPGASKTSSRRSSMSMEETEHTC

[13] = cells; type: functional, cell-based
[14] = cells; type: functional, cell-based; remark: listed apart in the source

Luciferin 4-monooxygenase, sequence (P08659 whole entry): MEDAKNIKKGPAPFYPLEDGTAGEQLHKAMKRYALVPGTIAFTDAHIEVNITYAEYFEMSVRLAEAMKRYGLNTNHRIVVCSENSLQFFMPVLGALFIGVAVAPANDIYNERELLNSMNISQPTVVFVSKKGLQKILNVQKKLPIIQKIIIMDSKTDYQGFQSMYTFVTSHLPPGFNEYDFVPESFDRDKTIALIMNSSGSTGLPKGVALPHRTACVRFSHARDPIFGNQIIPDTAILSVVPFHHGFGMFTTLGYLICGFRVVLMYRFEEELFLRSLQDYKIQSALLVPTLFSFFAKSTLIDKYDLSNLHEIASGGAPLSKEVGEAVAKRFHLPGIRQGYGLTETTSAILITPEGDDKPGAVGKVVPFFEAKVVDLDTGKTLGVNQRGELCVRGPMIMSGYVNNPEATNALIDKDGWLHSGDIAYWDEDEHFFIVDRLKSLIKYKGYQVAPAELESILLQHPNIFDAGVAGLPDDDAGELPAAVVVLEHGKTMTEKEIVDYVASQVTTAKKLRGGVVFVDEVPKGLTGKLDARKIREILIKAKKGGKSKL
Glucose-6-phosphate 1-dehydrogenase, sequence (P11413 whole entry): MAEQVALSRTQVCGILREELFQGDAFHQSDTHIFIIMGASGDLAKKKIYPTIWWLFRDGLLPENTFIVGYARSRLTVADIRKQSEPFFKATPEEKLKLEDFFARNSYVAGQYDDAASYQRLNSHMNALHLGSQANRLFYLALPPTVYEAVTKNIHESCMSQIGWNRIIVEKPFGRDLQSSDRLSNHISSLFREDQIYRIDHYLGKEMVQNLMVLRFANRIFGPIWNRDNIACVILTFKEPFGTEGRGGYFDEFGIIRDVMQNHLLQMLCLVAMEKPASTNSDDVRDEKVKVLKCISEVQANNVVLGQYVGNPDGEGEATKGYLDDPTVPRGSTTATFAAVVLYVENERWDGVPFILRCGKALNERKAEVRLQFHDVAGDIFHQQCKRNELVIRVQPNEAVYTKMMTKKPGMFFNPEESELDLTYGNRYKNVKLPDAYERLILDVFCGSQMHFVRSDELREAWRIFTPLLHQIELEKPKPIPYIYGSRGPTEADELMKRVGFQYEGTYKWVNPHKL

**Q.** Which AC50 [1] does the source give for `COc1ccccc1N1CCN(C(=O)CCC(=O)N2CCN(c3ccc(F)cc3)CC2)CC1` here?
**A.** Its AC50 is 186 µM (active).

**Q.** Which results are given for `CCCN1C(=O)/C(=C/c2c(N3CCNC(=O)C3CC(=O)OCC)nc3c(C)cccn3c2=O)SC1=S` (stereo not drawn)?
**A.** IC50 [2]: 34.1 µM (active); IC50 [3]: 50 µM (inactive)

**Q.** For `CCCn1c(=N)n(CC(=O)C(C)(C)C)c2ccccc21`, which EC50 [4] is on record?
**A.** The EC50 was 5.31 µM (active).

**Q.** Which AC50 [1] does the source give for `O=C(CCS(=O)(=O)c1ccccc1)Nc1nccs1` here?
**A.** Its AC50 is 48.6 µM (active).

**Q.** For `O=C(O)c1ccc(N=Nc2c(O)[nH]c3ccccc23)cc1`, which IC50 [5] is on record?
**A.** The IC50 was 84.3 µM (active).

**Q.** And the EC50 [6]?
**A.** Its EC50 is 0.365 µM (active).

**Q.** What about the EC50 [7] of the same compound?
**A.** The EC50 was 0.937 µM (active).

**Q.** With `Cc1ccccc1NC(=O)CN1C(=O)NC2(CCCCC2)C1=O` as the compound, how does the IC50 [5] read?
**A.** Its IC50 is 71.9 µM (active).

**Q.** With `O=C(O)CCC(=O)Nc1sc2c(c1C(=O)Nc1cccc3ccccc13)CCCCC2` as the compound, how does the IC50 [5] read?
**A.** Its IC50 is 51 µM (active).

**Q.** Which EC50 [8] does the source give for `CCN1CCCC1CNC(=O)c1ccc2c(c1)NC(=O)/C(=C\c1ccc(C)cc1)S2` (stereo not drawn) here?
**A.** Its EC50 is > 120 µM (not active).

**Q.** And the EC50 [9]?
**A.** The EC50 was 16 µM (active).

**Q.** And the EC50 [10]?
**A.** Its EC50 is > 120 µM (not active).

**Q.** What about the IC50 [11] of the same compound?
**A.** Its IC50 is > 80 µM (inactive).

**Q.** And the AC50 [12]?
**A.** The AC50 was 18.9 µM (active).

**Q.** With `C(=N\Nc1nc2ccccc2[nH]1)/c1cccc2nccnc12` as the compound, how does the EC50 [8] read?
**A.** Its EC50 is 18.5 µM (active).

**Q.** And the EC50 [13]?
**A.** The EC50 was > 350 µM (not active).

**Q.** What about the EC50 [9] of the same compound?
**A.** Its EC50 is 9.69 µM (active).

**Q.** What about the EC50 [10] of the same compound?
**A.** Its EC50 is 5.54 µM (active).

**Q.** And the EC50 [14]?
**A.** Its EC50 is > 350 µM (not active).

**Q.** What about the AC50 [1] of the same compound?
**A.** The AC50 was 105 µM (active).

**Q.** For `Cc1ncc(CO)c(/C=N/NC(=O)c2ccc(Br)cc2)c1O`, which IC50 [2] is on record?
**A.** Its IC50 is 14.4 µM (active).

**Q.** With `O=C(/C=C/Nc1cccc(C(F)(F)F)c1)C(F)(F)F` as the compound, how does the AC50 [1] read?
**A.** Its AC50 is > 350 µM (inactive).
